Assay [1] has as its system B16F10 melanoma lung metastases.
Method: A luciferase-expressing B16F10 melanoma lung metastasis model was used. The cells were injected into the tail vein at day 0. The FiDOX particles and controls were injected at day 7. The progression of metastasis was monitored with bioluminescence imaging after injection of luciferin. The bioluminescence images show the luciferase-expressing B16F10 cancer cells after injection of D-luciferin, 21 days after inoculation and 14 days after a single treatment.
FIG. 8 is a plot showing laboratory mouse survival curve data in the B16F10 melanoma lung metastasis model treated with a single injection of FiDOX nanoparticles, injected on day 7.
C57BL/6 mice were inoculated intravenously (i.v.) with 1×10^5B16-F10 cells on day 0 and the tumor was allowed to establish until day 7. In one experiment, mice were divided randomly into 5 groups and injected i.v. with FiDOX, Fi, DexDOX.
After treatment, mice were monitored up to 8 or 17 weeks, depending on the treatment received. At the end of the experiments, mice were sacrificed, their lungs were collected, and the number of surface-visible tumors was examined. The Kaplan-Meier method was used to evaluate survival.
The anti-tumor efficacy of P-selectin-targeted drug carrier nanoparticles was assessed against an aggressive experimental metastasis model. […]
Assay [2] deals with A375, SW620, LOVO and HCT116 xenografts. The assay can be described thus: Tumor xenografts in nude mice, tumor growth. It is filed as in vivo. Particulars: single administration. How it is done: Six-week-old female athymic NU/NU nude mice were injected subcutaneously with 5×10^5 of A375, SW620, LOVO, and HCT116 in […] culture media/Matrigel at a 1:5 ratio. For cell-line-derived xenografts, animals were randomized at a tumor volume of 70 to 120 mm^3 to four to six groups, with n=8-10 tumors per group. […] Xenografts were measured with digital caliper, and tumor volumes were determined with the formula: […]. Animals were euthanized using CO2 inhalation. Tumor volumes are plotted as means±SEM. Mice were housed in air-filtered laminar flow cabinets with a 12-hr light/dark cycle and food and water ad libitum. […]

In the case of `COc1cccc2c1C(=O)c1c(O)c3c(c(O)c1C2=O)C[C@@](O)(C(=O)CO)C[C@@H]3O[C@H]1C[C@H](N)[C@H](O)[C@H](C)O1` [doxorubicin, (7S,9S)-7-[(2R,4S,5S,6S)-4-amino-5-hydroxy-6-methyloxan-2-yl]oxy-6,9,11-trihydroxy-9-(2-hydroxyacetyl)-4-methoxy-8,10-dihydro-7H-tetracene-5,12-dione], the survival result in assay [1] (single injection on day 7) is recorded as “did not have a significant effect”. Besides, in assay [1] (single injection, bioluminescence), the tumor burden result is recorded as “did not have a significant effect”.

For `Cn1cnc2c(F)c(Nc3ccc(Br)cc3F)c(C(=O)NOCCO)cc21` [MEK162, 6-(4-bromo-2-fluoroanilino)-7-fluoro-N-(2-hydroxyethoxy)-3-methylbenzimidazole-5-carboxamide], the tumor growth inhibition entry in assay [2] is “no effect”.
